From US20260108483A1, “METHODS AND COMPOSITIONS FOR PREVENTING THE PROGRESSION OF DIABETIC RETINOPATHY AND RELATED CONDITIONS” (Opus Genetics, Inc., priority 2023, published 2026)

Experiments:
Assay type in all cases: in vivo, human
[1] = Clinical study safety: diastolic blood pressure; settings: combined placebo + Compound 1 patients; for Mean Diastolic Blood Pressure: Baseline 80.3
Text: (§1) The study was configured as a placebo-controlled, double-masked, randomized, Phase 2 study in approximately 100 subjects with moderately severe to severe NPDR (diabetic retinopathy severity score [DRSS] Level 47 or 53, see FIG. 1) or mild PDR (DRSS Level 61), evaluating safety and efficacy following administration of Compound 1 twice daily for 24 weeks. The study was configured for a 1:1 randomization (placebo: Compound 1). Randomization was stratified by level of disease severity (NPDR or PDR). Subjects with mild PDR were capped at 20% for each arm. Efficacy evaluations at 12 and/or 24 weeks included DRSS, center-involved diabetic macular edema (DME), moderate PDR or PDR-related adverse events (AEs), best-corrected visual acuity (BCVA), and central subfield thickness (CST). Further experimental procedures and results are described below.
(§2) At the Qualification/Baseline (Visit 2, Day 1): • The subject was randomized into the study. • Study medication was dispensed in accordance with the subjects randomized treatment arm. • Blood samples were drawn pre-dose for baseline levels and on Visit 9 (Week 24) for exploratory biomarker processing (i.e., cytokine and Ref-1 levels) to evaluate pharmacodynamic properties. • Subjects were instructed to administer their study medication (Compound 1 or placebo) each day, with 3 tablets every morning and 2 tablets every evening. Study medication was to be taken at approximately the same time each day and may be taken with or without food.
(§3) At the Second Treatment Visit (Visit 6, Week 12±2 Days), subjects were to return to the site for the following series of safety and efficacy assessments: drug accountability, concomitant medications, urine pregnancy test (only for women of childbearing potential), HR/BP/vital signs, BCVA (ETDRS), DRSS, CST (SD-OCT), blood draw for PK, blood chemistry, blood hematology, biomicroscopy, ophthalmoscopy, IOP, eGFR, and AEs. Following the completion of the assessments, used medication kits were collected for accountability (by counting the number of unused tablets), and new study medication kits dispensed.
(§4) At the Third Treatment Visit (Visit 9, Week 24±2 Days), subjects were to return to the site for the following series of safety and efficacy assessments: drug accountability, concomitant medications, urine pregnancy test (only for women of childbearing potential), physical examination, HR/BP/vital signs, BCVA (ETDRS), DRSS, CST (SD-OCT), blood chemistry, blood hematology, biomicroscopy, ophthalmoscopy, IOP, eGFR, AEs, and blood draw for exploratory biomarkers (ELISA, cytokine panel, comprehensive metabolic panel). Visit 9 (Week 24) was the end of the treatment period. Study medication was returned for accountability (by counting the number of unused tablets), and no further study medication dispensed.
(§5) Safety endpoints include: • Incidence and severity of systemic and ocular AEs, • Change from baseline in body system assessments, • Change from baseline in vital sign measurements, • Change from baseline in clinical laboratory assay results (blood chemistry, hematology), • Change from baseline in intraocular pressure (IOP), • Change from baseline in slit-lamp examination parameters, • Change from baseline in dilated funduscopic examination parameters, • Percent of subjects with a decrease of ≥10 letters in BCVA compared to baseline at Week 12 and Week 24, • Percent of subjects progressing to center-involved DME (eligible for rescue treatment at Week 12 and Week 24), • Percent of subjects with a worsening in DRSS of ≥2 steps in the study eye at Week 12 and Week 24, • Percent of subjects developing anterior segment neovascularization at Week 12 and Week 24, • Percent of subjects rescued (intravitreal anti-VEGF injection, laser PRP, focal/grid laser treatment, or surgery [vitrectomy]) at the discretion of the Investigator at Week 12 and Week 24, and • Change from baseline in estimated glomerular filtration rate (eGFR) at Week 12 and Week 24. […]

[2] = Clinical study safety: aspartate aminotransferase in subjects' blood; settings: combined placebo + Compound 1 patients; for Mean Concentration of Aspartate Aminotransferase in Subjects' Blood: Baseline 19.7
Text: as §1, §2, §3, §4, §5

[3] = Clinical study safety: systolic blood pressure; settings: combined placebo + Compound 1 patients; for Mean Systolic Blood Pressure: Baseline 136.9
Text: as §1, §2, §3, §4, §5

[4] = Clinical study safety: glomerular filtration rate; settings: combined placebo + Compound 1 patients; for Mean Glomerular Filtration Rate: Baseline 92.53
Text: as §1, §2, §3, §4, §5

[5] = Clinical study safety: alanine aminotransferase in subjects' blood; settings: combined placebo + Compound 1 patients; for Mean Concentration of Alanine Aminotransferase in Subjects' Blood: Baseline 22.4
Text: as §1, §2, §3, §4, §5

## CCCCCCCCC/C(=C\C1=C(C)C(=O)C(OC)=C(OC)C1=O)C(=O)O [Compound 1, (E)-2-((4,5-dimethoxy-2-methyl-3,6-dioxocyclohexa-1,4-dien-1-yl)methylene)undecanoic acid]
[1]; Week 12, 62 subjects
  Mean Diastolic Blood Pressure: 77.1 mmHg
[1]; Week 24, 27 subjects
  Mean Diastolic Blood Pressure: 80.4 mmHg
[1]; week 12, 62 subjects
  change in mean diastolic blood pressure relative to Baseline: −2.8 mmHg
  reduction in mean diastolic blood pressure relative to Baseline: 3%
[1]; week 24, 27 subjects
  change in mean diastolic blood pressure relative to Baseline: +1 mmHg
  increase in mean diastolic blood pressure relative to Baseline: 1%
[2]; Week 12, 53 subjects
  Mean Concentration of Aspartate Aminotransferase in Subjects' Blood: 19.2 IU/L
[2]; Week 24, 24 subjects
  Mean Concentration of Aspartate Aminotransferase in Subjects' Blood: 17.5 IU/L
[2]; week 12, 50 subjects
  change in mean concentration of aspartate aminotransferase relative to Baseline: −0.5 IU/L
  reduction in mean concentration of aspartate aminotransferase relative to Baseline: 3%
[2]; week 24, 22 subjects
  change in mean concentration of aspartate aminotransferase relative to Baseline: −1.8 IU/L
  reduction in mean concentration of aspartate aminotransferase relative to Baseline: 9%
[3]; Week 12, 62 subjects
  Mean Systolic Blood Pressure: 132 mmHg
[3]; Week 24, 27 subjects
  Mean Systolic Blood Pressure: 139.7 mmHg
[3]; week 12, 62 subjects
  change in mean systolic blood pressure relative to Baseline: −4.7 mmHg
  reduction in mean systolic blood pressure relative to Baseline: 3%
[3]; week 24, 27 subjects
  change in mean systolic blood pressure relative to Baseline: −0.7 mmHg
  reduction in mean systolic blood pressure relative to Baseline: 1%
[4]; Week 12, 52 subjects
  Mean Glomerular Filtration Rate: 83.85 mL/min/1.73 m^2
[4]; Week 24, 24 subjects
  Mean Glomerular Filtration Rate: 77.7 mL/min/1.73 m^2
[4]; week 12, 47 subjects
  change in mean glomerular filtrate rate relative to Baseline: −2.24 mL/min/1.73 m^2
  reduction in mean glomerular filtrate rate relative to Baseline: 2%
[4]; week 24, 21 subjects
  change in mean glomerular filtrate rate relative to Baseline: −9.84 mL/min/1.73 m^2
  reduction in mean glomerular filtrate rate relative to Baseline: 11%
[5]; Week 12, 53 subjects
  Mean Concentration of Alanine Aminotransferase in Subjects' Blood: 21.6 IU/L
[5]; Week 24, 24 subjects
  Mean Concentration of Alanine Aminotransferase in Subjects' Blood: 20.4 IU/L
[5]; week 12, 50 subjects
  change in mean concentration of alanine aminotransferase relative to Baseline: −0.8 IU/L
  reduction in mean concentration of alanine aminotransferase relative to Baseline: 3.6%
[5]; week 24, 22 subjects
  change in mean concentration of alanine aminotransferase relative to Baseline: −2.1 IU/L
  reduction in mean concentration of alanine aminotransferase relative to Baseline: 9.4%
